Target: DNA-PK (Homo sapiens, UniProt P78527)
Assay: DNA-PK inhibition assay (radiometric 33P-ATP kinase assay)
Assay type: biochemical
Settings: 100 μM ATP; competitive tight-binding fit
Description: Compounds were screened for their ability to inhibit DNA-PK kinase using a standard radiometric assay. Briefly, in this kinase assay the transfer of the terminal ^33P-phosphate in ^33P-ATP to a peptide substrate is interrogated. The assay was carried out in 384-well plates to a final volume of 50 μL per well containing approximately 6 nM DNA-PK, 50 mM HEPES (pH 7.5), 10 mM MgCl2, 25 mM NaCl, 0.01% BSA, 1 mM DTT, 10 μg/mL sheared double-stranded DNA (obtained from Sigma), 0.8 mg/mL DNA-PK peptide ([…] obtained from American Peptide), and 100 μM ATP. Accordingly, compounds of the invention were dissolved in DMSO to make 10 mM initial stock solutions. Serial dilutions in DMSO were then made to obtain the final solutions for the assay. A 0.75 μL aliquot of DMSO or inhibitor in DMSO was added to each well, followed by the addition of ATP substrate solution containing ^33P-ATP (obtained from Perkin Elmer). The reaction was started by the addition of DNA-PK, peptide and ds-DNA. After 45 min. the reaction was quenched with 25 μL of 5% phosphoric acid. The reaction mixture was transferred to MultiScreen HTS 384-well PH plates (obtained from Millipore), allowed to bind for one hour, and washed three times with 1% phosphoric acid. Following the addition of 50 μL of Ultima Gold™ high efficiency scintillant (obtained from Perkin Elmer), the samples were counted in a Packard TopCount NXT Microplate Scintillation and Luminescence Counter (Packard BioScience). The Ki values were calculated using Microsoft Excel Solver macros to fit the data to the kinetic model for competitive tight-binding inhibition.

Ki, < 30 nM:
CNC(=O)c1cc(C(F)(F)F)nc2c([C@H](C)CNc3cc(-c4ccc(C)nc4)ncn3)cccc12 [Compound 985]
CNC(=O)c1c(F)cnc2c([C@H](C)CNc3cc(-c4ccc(CC5CCN(C)CC5)nc4)ncn3)cccc12 [Compound 991]
CNC(=O)c1ccnc2c([C@H](C)CNc3cc(-c4ccc(N(C)C5CCN(CC(F)(F)F)CC5)nc4)ncn3)cccc12 [Compound 1042]
CNC(=O)c1ccc([C@H](C)CNc2cc(-c3ccc(NC(C)COC)nc3)ncn2)c(OC)c1 (single isomer, unassigned) [Compound 394]
CNC(=O)c1ccnc2c([C@H](C)CNc3cc(-c4ccc(CC5CCN(CC(F)F)CC5)nc4)ncn3)ccc(F)c12 [Compound 1020]
CCOc1ncc(-c2cc(NC[C@@H](C)c3cccc4c(C(=O)NC)c(F)cnc34)ncn2)cn1 [Compound 1030]
CNC(=O)c1c(F)cnc2c([C@H](C)CNc3cc(-c4cnc5c(c4)COC5(C)C)ncn3)cccc12 [Compound 987]
COc1ccccc1[C@H](C)CNc1cc(-c2cnc3[nH]ncc3c2)ncn1 [Compound 150]
CNC(=O)c1c(F)cnc2c([C@H](C)CNc3cc(-c4cnc(N(C)C5CCN(CC(F)(F)F)CC5)nc4)ncn3)cccc12 [Compound 1082]
CNC(=O)c1ccnc2c([C@H](C)CNc3cc(-c4cnc(OC(C)(C)C)nc4)ncn3)cccc12 [Compound 996]
CNC(=O)c1ccnc2c([C@H](C)CNc3cc(-c4cnc5c(c4)COC5(C)C)ncn3)cccc12 [Compound 986]
CNC(=O)c1ccnc2c([C@H](C)CNc3cc(-c4cnc(COC(C)C)nc4)ncn3)cccc12 [Compound 1014]
CNC(=O)c1ccnc2c([C@H](C)CNc3cc(-c4cnc(N(C)C5CCN(CC(F)(F)F)CC5)nc4)ncn3)cccc12 [Compound 1061]
CNC(=O)c1c(F)cnc2c([C@H](C)CNc3cc(-c4cnc(OC5CCN(C)CC5)nc4)ncn3)cccc12 [Compound 1050]
CNC(=O)c1c(F)cnc2c([C@H](C)CNc3cc(-c4cnc(CC5CCN(C)CC5)nc4)ncn3)cccc12 [Compound 1002]
COc1ccccc1[C@H](C)CNc1cc(-c2ccnc(N[C@@H](C)CO)c2)ncn1 (single isomer, unassigned) [Compound 213]
CNC(=O)c1ncnc2c([C@H](C)CNc3cc(-c4ccc(C(=O)NCCC#N)cc4)ncn3)cccc12 [Compound 1017]
CNC(=O)c1c(F)cnc2c([C@H](C)CNc3cc(-c4ccc(NC5CCN(CC(F)F)CC5)nc4)ncn3)cccc12 [Compound 1084]
CNC(=O)c1c(F)cnc2c([C@H](C)CNc3cc(-c4cnc(CC5CCN(CC(F)(F)F)CC5)nc4)ncn3)cccc12 [Compound 1048]
CNC(=O)c1ccnc2c([C@H](C)CNc3cc(-c4ccc(CC5CCN(C)CC5)nc4)ncn3)ccc(F)c12 [Compound 992]
CNC(=O)c1ccnc2c([C@H](C)CNc3cc(-c4cnc(NC5CC5)nc4)ncn3)ccc(F)c12 [Compound 1028]
CNC(=O)c1ccnc2c([C@H](C)CNc3cc(-c4ccc(NC5CCN(CC(F)F)CC5)nc4)ncn3)cccc12 [Compound 1083]
CNC(=O)c1ccnc2c([C@H](C)CNc3cc(-c4cnc(NC5CCN(C)CC5)nc4)ncn3)cccc12 [Compound 1078]
CNC(=O)c1c(F)cnc2c([C@H](C)CNc3cc(-c4ccc(CC5CCN(CC(F)F)CC5)nc4)ncn3)cccc12 [Compound 1043]
CNC(=O)c1ccnc2c([C@H](C)CNc3cc(-c4ccc(CC5CCN(CC(F)(F)F)CC5)nc4)ncn3)cccc12 [Compound 1023]
CNC(=O)c1ccnc2c([C@H](C)CNc3cc(-c4cnc(CC5CCN(C(C)=O)CC5)nc4)ncn3)cccc12 [Compound 1071]
CNC(=O)c1ccnc2c([C@H](C)CNc3cc(-c4cnc(NCC(F)(F)F)nc4)ncn3)ccc(F)c12 [Compound 1054]
